In ChEMBL document CHEMBL3885861, “Open TG-GATES”:

Species on record: Rattus norvegicus
Assay: Open TG-GATES - Regimen: Single
Format: toxicity, organism-based, Sprague-Dawley
Design: regimen Single, gender Male, age 6 weeks
Conditions: in vivo, po, 0 mg/kg, route gavage, dose level Control; for APTT / Bas / Eos / Fbg / Hb / Ht / Lym / MCH / MCHC / MCV / Mono / Neu / PT / RBC / Ret / WBC / Plat: tissue Blood; for KIDNEY_L / KIDNEY_R / KIDNEY_TOTAL: tissue Kidney; for LIVER: tissue Liver

## C[C@H](CS)C(=O)N1CCC[C@H]1C(=O)O [CAPTOPRIL]
3 h
  TERMINAL_BW: 220.9 g
  APTT: 16.4 s
  Bas: 0%
  Eos: 1.2%
  Fbg: 204.8 mg/dL
  Hb: 13.1 g/dL
  Ht: 39.7%
  Lym: 79.2%
  MCH: 21.4 pg
  MCHC: 33.1%
  MCV: 64.5 fL
  Mono: 6%
  Neu: 14%
  PT: 11.7 s
  RBC: 615.2 x10_4/ul
  Ret: 7.5%
  WBC: 110.3 x10_2/uL
  KIDNEY_L: 0.9 g
  KIDNEY_R: 1 g
  KIDNEY_TOTAL: 1.9 g
3 h, tissue Plasma
  ALP: 902.4 IU/L
  ALT: 34 IU/L
  AST: 65.2 IU/L
  BUN: 13 mg/dL
  CRE: 0.5 mg/dL
  DBIL: 0.018 mg/dL
  GLC: 193.6 mg/dL
  IP: 9.9 mg/dL
  K: 5.1 meq/L
  LDH: 84.6 IU/L
  Na: 137.6 meq/L
  PL: 127.6 mg/dL
  RALB: 3.7 g/dL
  TBIL: 0.4 mg/dL
  TC: 70.8 mg/dL
  TG: 42.6 mg/dL
  TP: 5.4 g/dL
  gamma-GTP: 1.6 IU/L
6 h
  TERMINAL_BW: 220.4 g
  APTT: 15.7 s
  Bas: 0%
  Eos: 1.2%
  Hb: 13.5 g/dL
  Ht: 41.1%
  Lym: 76.8%
  MCH: 21.1 pg
  MCHC: 32.9%
  MCV: 64.3 fL
  Mono: 6.2%
  Neu: 16.2%
  PT: 11.8 s
  Plat: 118.9 x10_4/uL
  RBC: 639.6 x10_4/ul
  Ret: 7.5%
  WBC: 124.4 x10_2/uL
  KIDNEY_L: 1 g
  KIDNEY_R: 1 g
  KIDNEY_TOTAL: 2 g
6 h, tissue Plasma
  ALP: 725.4 IU/L
  ALT: 31.2 IU/L
  AST: 58.4 IU/L
  BUN: 11.8 mg/dL
  CRE: 0.6 mg/dL
  DBIL: 0.012 mg/dL
  GLC: 198.2 mg/dL
  K: 4.7 meq/L
  LDH: 75.6 IU/L
  Na: 139 meq/L
  PL: 135.6 mg/dL
  RALB: 3.6 g/dL
  TBIL: 0.3 mg/dL
  TC: 76.8 mg/dL
  TG: 60 mg/dL
  TP: 5.3 g/dL
  gamma-GTP: 1.4 IU/L
9 h
  TERMINAL_BW: 222.4 g
  APTT: 16.3 s
  Bas: 0%
  Eos: 1%
  Fbg: 207.2 mg/dL
  Hb: 12.9 g/dL
  Ht: 39.1%
  Lym: 79.8%
  MCH: 21.2 pg
  MCHC: 33%
  MCV: 64.5 fL
  Mono: 5.4%
  Neu: 14%
  PT: 12.2 s
  Plat: 118.8 x10_4/uL
  RBC: 607 x10_4/ul
  Ret: 7.9%
  WBC: 89.1 x10_2/uL
  KIDNEY_L: 1 g
  KIDNEY_R: 1 g
  KIDNEY_TOTAL: 2.1 g
  LIVER: 9.6 g
9 h, tissue Plasma
  ALP: 868 IU/L
  ALT: 33.4 IU/L
  AST: 60.2 IU/L
  BUN: 13.4 mg/dL
  CRE: 0.4 mg/dL
  DBIL: 0.078 mg/dL
  GLC: 200 mg/dL
  IP: 10 mg/dL
  K: 4.9 meq/L
  LDH: 53.8 IU/L
  Na: 137.8 meq/L
  PL: 132.2 mg/dL
  RALB: 3.6 g/dL
  TBIL: 0.4 mg/dL
  TC: 68.8 mg/dL
  TG: 64.8 mg/dL
  TP: 5.4 g/dL
  gamma-GTP: 2 IU/L
24 h
  TERMINAL_BW: 235.3 g
  APTT: 15.7 s
  Bas: 0%
  Eos: 1.4%
  Hb: 13.4 g/dL
  Ht: 40.3%
  Lym: 77.6%
  MCH: 21.7 pg
  MCHC: 33.1%
  MCV: 65.6 fL
  Mono: 5.8%
  Neu: 15.4%
  PT: 11.4 s
  Plat: 115.5 x10_4/uL
  RBC: 614.6 x10_4/ul
  Ret: 9.1%
  WBC: 114 x10_2/uL
  KIDNEY_L: 1 g
  KIDNEY_R: 1 g
  KIDNEY_TOTAL: 2 g
  LIVER: 11.7 g
24 h, tissue Plasma
  ALP: 943.6 IU/L
  ALT: 39 IU/L
  AST: 65.2 IU/L
  BUN: 18.2 mg/dL
  CRE: 0.6 mg/dL
  Ca: 11 mg/dL
  DBIL: 0.082 mg/dL
  GLC: 199.8 mg/dL
  IP: 8.5 mg/dL
  K: 4.6 meq/L
  Na: 140.2 meq/L
  PL: 146 mg/dL
  RALB: 3.9 g/dL
  TBIL: 0.3 mg/dL
  TC: 76.8 mg/dL
  TG: 95.8 mg/dL
  TP: 5.7 g/dL
